Converted amounts (≈) assume the structure as drawn. The source made the active and inactive calls. No cut-off for these calls is given here.
Legend:
Cell membrane [1] = test: Induction of cell membrane depolarization in vancomycin-resistant Enterococcus faecium clinical strain assessed as bacterial cells with depolarized membrane potential at MIC incubated for 25 to 30 mins by DiOC2(3) probe based flow cytometry (reference value: 0.8%); assay type: subcellular; conditions: time 25-30 min
[2] = system: Staphylococcus epidermidis; test: Bactericidal activity against methicillin- susceptible Staphylococcus epidermidis ATCC 12228 assessed as reduction in colony forming units incubated for 18 hrs in broth followed by culturing on agar plate for 24 hrs; assay type: functional; conditions: time 42 hrs, read-out: MBC99.9
Enterococcus faecium [3] = test: Bactericidal activity against vancomycin-resistant Enterococcus faecium clinical strain assessed as reduction in colony forming units incubated for 18 hrs in broth followed by culturing on agar plate for 24 hrs; assay type: functional; conditions: time 42 hrs, read-out: MBC99.9
Staphylococcus aureus [4] = test: Antibacterial activity against methicillin-resistant Staphylococcus aureus clinical strain 19449 assessed as inhibition of bacterial growth incubated for 18 hrs by broth microdilution method; assay type: functional
Cell membrane [5] = test: Induction of cell membrane depolarization in vancomycin-resistant Enterococcus faecium clinical strain assessed as bacterial cells with depolarized membrane potential at 2XMIC incubated for 25 to 30 mins by DiOC2(3) probe based flow cytometry (reference value: 0.8%); assay type: subcellular; conditions: time 25-30 min
[6] = system: Staphylococcus epidermidis; test: Bactericidal activity against biofilm producer Staphylococcus epidermidis ATCC 35984 assessed as reduction in colony forming units incubated for 18 hrs in broth followed by culturing on agar plate for 24 hrs; assay type: functional; conditions: time 42 hrs, read-out: MBC99.9
Enterococcus faecalis [7] = test: Antibacterial activity against Enterococcus faecalis ATCC 29212 assessed as inhibition of bacterial growth measured for 18 hrs by OD600 based analysis; assay type: functional, organism-based
Staphylococcus aureus [8] = test: Ratio of MBC to MIC for biofilm producer Staphylococcus aureus RN450; assay type: functional
Pseudomonas aeruginosa = test: Antibacterial activity against Pseudomonas aeruginosa ATCC 27853 assessed as inhibition of bacterial growth incubated for 18 hrs by broth microdilution method; assay type: functional
Cell membrane [9] = test: Induction of cell membrane depolarization in methicillin-resistant Staphylococcus aureus 19449 assessed as bacterial cells with depolarized membrane potential at 2XMIC incubated for 25 to 30 mins by DiOC2(3) probe based flow cytometry (reference value: 0.7%); assay type: subcellular; conditions: time 25-30 min
Enterococcus faecalis [10] = test: Bactericidal activity against Enterococcus faecalis ATCC 29212 assessed as reduction in colony forming units incubated for 18 hrs in broth followed by culturing on agar plate for 24 hrs; assay type: functional; conditions: time 42 hrs, read-out: MBC99.9
Staphylococcus aureus [11] = test: Bactericidal activity against methicillin-resistant Staphylococcus aureus clinical strain 19449 assessed as reduction in colony forming units incubated for 18 hrs in broth followed by culturing on agar plate for 24 hrs; assay type: functional; conditions: time 42 hrs, read-out: MBC99.9
Staphylococcus aureus [12] = test: Antibacterial activity against methicillin-susceptible Staphylococcus aureus ATCC 25923 assessed as inhibition of bacterial growth measured for 18 hrs by OD600 based analysis; assay type: functional, organism-based
Streptococcus pneumoniae = test: Antibacterial activity against Streptococcus pneumoniae ATCC 49619 assessed as inhibition of bacterial growth incubated for 18 hrs by broth microdilution method; assay type: functional
[13] = system: Staphylococcus epidermidis; test: Bactericidal activity against linezolid-resistant Staphylococcus epidermidis NIL 4399/19 assessed as reduction in colony forming units incubated for 18 hrs in broth followed by culturing on agar plate for 24 hrs; assay type: functional; conditions: time 42 hrs, read-out: MBC99.9
Cell membrane [14] = test: Induction of cell membrane depolarization in Staphylococcus aureus Newman assessed as ratio of red to green fluorescence intensity at MIC incubated for 25 to 30 mins by DiOC2(3) probe based flow cytometry; assay type: subcellular; conditions: time 25-30 min
Staphylococcus aureus [15] = test: Ratio of MBC to MIC for vancomycin-intermediate Staphylococcus aureus ATCC 700699; assay type: functional
Staphylococcus aureus [16] = test: Antibacterial activity against Staphylococcus aureus Newman assessed as inhibition of bacterial growth incubated for 18 hrs by broth microdilution method; assay type: functional
Enterococcus faecium [17] = test: Antibacterial activity against vancomycin-resistant Enterococcus faecium assessed as inhibition of bacterial growth incubated for 18 hrs by broth microdilution method; assay type: functional
Staphylococcus aureus [18] = test: Bactericidal activity against vancomycin-intermediate Staphylococcus aureus ATCC 700699 assessed as log reduction of bacterial colony forming units at 4 times MIC incubated for 8 hrs in broth followed by culturing on agar plate for 24 hrs by time-killing assay; assay type: functional; conditions: time 32 hrs
[19] = system: Staphylococcus epidermidis; test: Antibacterial activity against biofilm producer Staphylococcus epidermidis ATCC 35984 assessed as inhibition of bacterial growth incubated for 18 hrs by broth microdilution method; assay type: functional
[20] = Induction of hemolysis in horse RBC at 200 uM incubated for 1 hr; assay type: toxicity, cell-based, Equus caballus, Erythrocyte; conditions: horse red blood cells (erythrocytes), read-out: Activity
Cell membrane [21] = test: Induction of cell membrane depolarization in vancomycin-resistant Enterococcus faecium clinical strain assessed as bacterial cells with polarized membrane potential at MIC incubated for 25 to 30 mins by DiOC2(3) probe based flow cytometry (reference value: 96.8%); assay type: subcellular; conditions: time 25-30 min
Cell membrane [22] = test: Induction of cell membrane depolarization in vancomycin-resistant Enterococcus faecium clinical strain assessed as bacterial cells with polarized membrane potential at 4 times MIC incubated for 25 to 30 mins by DiOC2(3) probe based flow cytometry (reference value: 96.8%); assay type: subcellular; conditions: time 25-30 min
Cell membrane [23] = test: Induction of cell membrane depolarization in methicillin-resistant Staphylococcus aureus 19449 assessed as bacterial cells with depolarized membrane potential at MIC incubated for 25 to 30 mins by DiOC2(3) probe based flow cytometry (reference value: 0.7%); assay type: subcellular; conditions: time 25-30 min
Staphylococcus aureus [24] = test: Bactericidal activity against vancomycin-intermediate Staphylococcus aureus ATCC 700699 assessed as reduction in colony forming units incubated for 18 hrs in broth followed by culturing on agar plate for 24 hrs; assay type: functional; conditions: time 42 hrs, read-out: MBC99.9
Cell membrane [25] = test: Induction of cell membrane depolarization in Staphylococcus aureus Newman assessed as bacterial cells with depolarized membrane potential at MIC incubated for 25 to 30 mins by DiOC2(3) probe based flow cytometry (reference value: 1.6%); assay type: subcellular; conditions: time 25-30 min
Cell membrane [26] = test: Induction of cell membrane depolarization in methicillin-resistant Staphylococcus aureus 19449 assessed as ratio of red to green fluorescence intensity at MIC incubated for 25 to 30 mins by DiOC2(3) probe based flow cytometry; assay type: subcellular; conditions: time 25-30 min
Cell membrane [27] = test: Induction of cell membrane depolarization in Staphylococcus aureus Newman assessed as bacterial cells with depolarized membrane potential at 2XMIC incubated for 25 to 30 mins by DiOC2(3) probe based flow cytometry (reference value: 1.6%); assay type: subcellular; conditions: time 25-30 min
Staphylococcus aureus [28] = test: Bactericidal activity against biofilm producer Staphylococcus aureus RN450 assessed as reduction in colony forming units incubated for 18 hrs in broth followed by culturing on agar plate for 24 hrs; assay type: functional; conditions: time 42 hrs, read-out: MBC99.9

Compound `O=C(Nc1cccc(Cl)c1)NC1CCN(CCC(Oc2cccc(C(F)(F)F)c2)c2ccccc2)CC1` (racemic) has an Activity (Cell membrane [1]) of 34.8%, an MBC [2] of 3.12 µg/mL (≈ 5.87 µM) and an MBC (Enterococcus faecium [3]) of 6.25 µg/mL (≈ 11.7 µM). For the same compound, the MIC (Staphylococcus aureus [4]) was 0.78 µg/mL (≈ 1.47 µM), the Activity (Cell membrane [5]) was 92.7% and the MBC [6] was 6.25 µg/mL (≈ 11.7 µM). The Activity (Enterococcus faecalis [7]) was “Active”, the Ratio (Staphylococcus aureus [8]) was 4 and the MIC (Pseudomonas aeruginosa) was greater than 12.5 µg/mL. It also gave an Activity (Cell membrane [9]) of 96.8%, an MBC (Enterococcus faecalis [10]) of 6.25 µg/mL (≈ 11.7 µM) and an MBC (Staphylococcus aureus [11]) of 3.12 µg/mL (≈ 5.87 µM). For the same compound, the Activity (Staphylococcus aureus [12]) was “Active”, the MIC (Streptococcus pneumoniae) was 6.25 µg/mL (≈ 11.7 µM) and the MBC [13] was 6.25 µg/mL (≈ 11.7 µM). The Ratio (Cell membrane [14]) was 0.27, the Ratio (Staphylococcus aureus [15]) was 4 and the MIC (Staphylococcus aureus [16]) was 1.56 µg/mL (≈ 2.93 µM). For the same compound, the MIC (Enterococcus faecium [17]) was 1.56 µg/mL (≈ 2.93 µM), the Activity (Staphylococcus aureus [18]) was 2 log10CFU/ml and the MIC [19] was 1.56 µg/mL (≈ 2.93 µM). The hemolysis at 1 h, 200 µM [20] was less than 1%, the Activity (Cell membrane [21]) was 59.3% and the Activity (Cell membrane [22]) was 1.5%. The Activity (Cell membrane [23]) was 91.6%, the MBC (Staphylococcus aureus [24]) was 12.5 µg/mL (≈ 23.5 µM) and the Activity (Cell membrane [25]) was 89%. The Ratio (Cell membrane [26]) was 0.53, the Activity (Cell membrane [27]) was 89.3% and the MBC (Staphylococcus aureus [28]) was 6.25 µg/mL (≈ 11.7 µM).

Reference: ChEMBL document CHEMBL5346933, “Design and synthesis of novel arylurea derivatives of aryloxy(1-phenylpropyl) alicyclic diamines with antimicrobial activity against multidrug-resistant Gram-positive bacteria” (Eur J Med Chem, 2023)
